This is an account of results in ChEMBL document CHEMBL1154355, “Identification of the bioactive constituent and its mechanisms of action in mediating the anti-inflammatory effects of black cohosh and related Cimicifuga species on human primary blood macrophages” (2009).

The structures appear in SMILES notation. The source made the active and inactive calls. No cut-off for these calls is given here.

The subject of experiment [1] is PBMC. Nature of the experiment: Antiinflammatory activity in human PBMC assessed as inhibition of 10 ng/ml LPS-induced TNFalpha release at 1.3 uM pretreated 24 hrs before inducer-challenge measured 24 hrs after LPS addition by ELISA. The experiment is classed as functional. Background: An ELISA detects its analyte on a solid surface through an enzyme-linked reagent.

Experiment [2] has as its system PBMC. Nature of the experiment: Antiinflammatory activity in human PBMC assessed as inhibition of 10 ng/ml LPS-induced TNFalpha release at 5.1 uM pretreated 24 hrs before inducer-challenge measured 24 hrs after LPS addition by ELISA. The experiment is classed as functional.
In experiment [3] the test system is PBMC. The experiment can be described thus: Inhibition of LPS-induced NFkappaB p65 subunit translocation into nucleus in human PBMC at 140 uM pretreated 24 hrs before inducer-challenge measured 15 mins after LPS addition by Western blot. It counts as functional, cell-based. A general note: A western blot detects proteins with antibodies after separation by electrophoresis.

The target of experiment [4] is MAP kinase p38 (Homo sapiens) (UniProt O15264+Q15759+Q16539+P53778). The experiment can be described thus: Inhibition of LPS-induced p38 MAPK phosphorylation in human PBMC at 140 uM pretreated 24 hrs before inducer-challenge measured 15 mins after LPS addition by Western blot. The experiment is classed as protein assay.
Experiment [5] deals with PBMC. The experiment can be described thus: Antiinflammatory activity in human PBMC assessed as inhibition of 1 ng/ml LPS-induced TNFalpha release at 140 uM pretreated 24 hrs before inducer-challenge measured 24 hrs after LPS addition by ELISA. It counts as functional.
The subject of experiment [6] is PBMC. Nature of the experiment: Antiinflammatory activity in human PBMC assessed as inhibition of 10 ng/ml LPS-induced TNFalpha release at 140 uM pretreated 24 hrs before inducer-challenge measured 24 hrs after LPS addition by ELISA. The experiment is classed as functional.
The target of experiment [7] is Mitogen-activated protein kinase; ERK1/ERK2 (Homo sapiens) (UniProt P27361+P28482). The experiment can be described thus: Inhibition of LPS-induced ERK1/2 phosphorylation in human PBMC at 140 uM pretreated 24 hrs before inducer-challenge measured 15 mins after LPS addition by Western blot. It counts as protein assay.
Chain of Mitogen-activated protein kinase; ERK1/ERK2 (Homo sapiens) (P27361 whole entry, looked up): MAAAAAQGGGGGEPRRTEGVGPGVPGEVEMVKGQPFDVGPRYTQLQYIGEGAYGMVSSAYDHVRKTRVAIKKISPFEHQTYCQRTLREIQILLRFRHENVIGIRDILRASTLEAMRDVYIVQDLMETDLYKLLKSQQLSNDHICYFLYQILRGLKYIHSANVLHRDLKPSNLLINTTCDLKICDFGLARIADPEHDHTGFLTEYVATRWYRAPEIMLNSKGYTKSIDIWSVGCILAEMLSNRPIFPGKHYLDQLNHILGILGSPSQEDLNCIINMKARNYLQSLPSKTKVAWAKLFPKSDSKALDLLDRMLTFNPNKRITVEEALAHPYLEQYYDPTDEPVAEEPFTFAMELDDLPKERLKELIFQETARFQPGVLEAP
Chain of Mitogen-activated protein kinase; ERK1/ERK2 (Homo sapiens) (P28482 whole entry, looked up): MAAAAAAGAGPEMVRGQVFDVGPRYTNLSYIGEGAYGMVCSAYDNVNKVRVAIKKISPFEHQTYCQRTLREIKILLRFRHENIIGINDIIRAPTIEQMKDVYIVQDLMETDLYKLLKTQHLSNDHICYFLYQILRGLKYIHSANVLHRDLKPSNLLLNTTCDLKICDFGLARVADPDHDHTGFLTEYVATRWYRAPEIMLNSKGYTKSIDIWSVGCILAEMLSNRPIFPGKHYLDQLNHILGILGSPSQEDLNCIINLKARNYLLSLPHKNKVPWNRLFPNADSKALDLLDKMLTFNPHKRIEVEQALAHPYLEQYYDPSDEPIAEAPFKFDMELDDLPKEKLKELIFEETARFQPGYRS

Take `C[C@@H]1C[C@H]2[C@@H]3CCC4=CC(=O)C=C[C@]4(C)[C@@]3(F)[C@@H](O)C[C@]2(C)[C@@]1(O)C(=O)CO` [DEXAMETHASONE]: the “inhibition (INH)” value was found to be 32% in the experiment on PBMC [1] and 25% in the experiment on PBMC [2].

For the molecule `COc1ccc(/C=C/C(=O)OCC(=O)Cc2ccc(O)c(O)c2)cc1O` [CIMIRACEMATE A], the inhibition result (in the experiment with PBMC [3]; in experiment [7]) was “Active” each time. Also, in experiment [4], the inhibition entry is “inactive”. In addition, the “inhibition (INH)” value in the experiment with PBMC [5] stood at 47%; in the experiment on PBMC [6], 58%.
